Measured values published in paper PMC6934700, “Structure-Guided Design of a Fluorescent Probe for the Visualization of FtsZ in Clinically Important Gram-Positive and Gram-Negative Bacterial Pathogens” (Scientific Reports, 2019).
Read-outs that look alike come from different tables or passages of the source.

What was measured:
[1] = biological target: T1, S. aureus (SaFtsZ) (Staphylococcus aureus, UniProt P0A031); test: biochemical; type: binding
T1 construct: 6xHis (C); made in house; host or cells: E. coli BLR (DE3), pET-22b(+)
T1 sequence (P0A031 1-390): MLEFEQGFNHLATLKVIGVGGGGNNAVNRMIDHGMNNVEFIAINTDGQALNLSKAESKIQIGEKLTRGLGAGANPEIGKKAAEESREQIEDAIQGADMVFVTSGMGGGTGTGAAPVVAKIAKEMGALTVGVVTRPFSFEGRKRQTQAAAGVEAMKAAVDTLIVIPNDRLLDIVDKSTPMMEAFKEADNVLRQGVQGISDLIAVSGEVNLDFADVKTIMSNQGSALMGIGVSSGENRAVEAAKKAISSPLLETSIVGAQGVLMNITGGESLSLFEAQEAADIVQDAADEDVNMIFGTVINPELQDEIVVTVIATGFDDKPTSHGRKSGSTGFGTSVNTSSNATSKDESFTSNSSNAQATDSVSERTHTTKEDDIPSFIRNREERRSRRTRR
Procedure: (§1) Fluorescence anisotropy experiments were performed using an AVIV model ATF105 spectrofluorometer at 15, 25, or 37 °C. In these experiments, bandwidths were set to 4 nm in both the excitation and emission directions, with the excitation and emission wavelengths being set at 488 nm and 510 nm, respectively. BOFP (0.1 µM) was titrated with increasing concentrations (ranging from 0 to 12 µM) of FtsZ in 120 µL of buffer containing 50 mM Tris-HCl (pH 7.6) and 50 mM KCl. After each protein addition, the samples were equilibrated for 3 minutes, whereupon the fluorescence anisotropy was measured.
(§2) In this equation, r0 is the anisotropy of the protein-free compound, r∞ is the anisotropy of the compound in the presence of an infinite concentration of FtsZ, [C]tot is the total concentration of the compound, and [P]tot is the total concentration of protein with each addition. These analyses yielded the equilibrium dissociation constant (Kd) for each binding reaction.
(§3) The binding free energy (ΔG) at temperature T was derived from the corresponding Kd value determined at T using the following relationship:2 ΔG=−RTln(1/Kd)
(§4) The binding enthalpy (ΔH) and entropy (ΔS) were derived from linear fits of the ln(1/Kd) vs. 1/T plots shown in Figs. 3f and 5e using the following relationship:3 ln(1/Kd)=−ΔH/R(1/T)+ΔS/R
The impact of guanosine nucleotide and magnesium on the binding of BOFP to SaFtsZ was assessed at 37 °C in the same buffer described above. In these studies, the anisotropy of 0.1 µM BOFP alone or in the presence of 10 µM SaFtsZ was measured, with the latter also being measured in the presence of 0.1 mM GMPCPP (a non-hydrolyzable GTP analog), 10 mM MgCl2, or both.
In comparative control experiments, the anisotropy of 0.1 µM BODIPY FL-COOH or BOFP alone or in the presence of SaFtsZ (10 µM), SpyFtsZ (10 µM), KpFtsZ (2 µM), or PaFtsZ (2 µM) was measured at 37 °C in the same buffer described above.

[2] = biological target: T2, A. baumannii (AbFtsZ) (Acinetobacter baumannii, UniProt V5V8B6); test: Fluorescence anisotropy binding of BOFP to AbFtsZ; settings: for Kd: 50 mM Tris-HCl (pH 7.6), 50 mM KCl, 0.1 µM BOFP
T2 sequence (V5V8B6 1-391): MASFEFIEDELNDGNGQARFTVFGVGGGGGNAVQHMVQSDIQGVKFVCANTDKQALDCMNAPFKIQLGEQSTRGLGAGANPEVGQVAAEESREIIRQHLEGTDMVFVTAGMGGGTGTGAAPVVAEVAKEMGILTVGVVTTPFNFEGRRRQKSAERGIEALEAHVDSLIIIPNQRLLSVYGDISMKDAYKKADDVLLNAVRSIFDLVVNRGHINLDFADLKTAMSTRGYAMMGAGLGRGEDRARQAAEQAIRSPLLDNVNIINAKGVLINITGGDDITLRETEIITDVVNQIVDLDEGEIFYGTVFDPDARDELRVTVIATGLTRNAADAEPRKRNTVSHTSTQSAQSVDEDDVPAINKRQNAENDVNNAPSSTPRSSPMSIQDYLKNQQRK
Procedure: as §1, §2, §3, §4

[3] = system: FtsZ in E. faecium ATCC 19434 cells; test: FtsZ visualization by fluorescence microscopy in live cells; type: cell-based, Enterococcus faecium; settings: 1 µg/mL for 5 minutes
Procedure: (§5) All differential interference contrast (DIC) and fluorescence microscopy experiments were conducted using an Olympus BX50 microscope equipped with an X-cite Exacte 200 W mercury lamp, a 100× Olympus UPLSAPO oil immersion objective (1.40 aperture), as well as both Chroma ET-EGFP (FITC/Cy2) and ET mCherry, Texas Red filters. Images were captured using a QImaging Retiga R3 charge-coupled device (CCD) camera and the Ocular-Version 2.0 software package (QImaging).
(§6) For visualizing FtsZ in Gram-positive bacteria using BOFP, the bacterial cells were grown to log-phase in media suitable for each individual pathogen. Specifically, S. aureus NRS705 (MRSA) was grown in tryptic soy broth (TSB), E. faecalis ATCC 29212 and E. faecium ATCC 19434 were grown in lactobacilli MRS broth, S. agalactiae ATCC 12386 and S. pneumoniae ATCC 49619 were grown in TH broth, and S. pyogenes ATCC 19615 was grown in CAMH broth supplemented with 3% (v/v) LHB. For each Gram-positive bacterial strain, a total of 1 mL of cell culture was centrifuged at 15,000 × g for 1 minute and washed 2–3 times with 1 mL of PBS. After the final wash, the pelleted cells were resuspended in 500 µL of PBS containing 1 µg/mL of BOFP and incubated in the dark for 5 minutes at room temperature. The cells were then centrifuged at 15,000 × g for 1 minute, washed twice with 1 mL of PBS, and subsequently resuspended in 200 µL of PBS. […]

[4] = system: FtsZ in S. pyogenes ATCC 19615 cells; test: as above; type: cell-based, Streptococcus pyogenes; settings: 1 µg/mL for 5 minutes
Procedure: as §5, §6

[5] = from linear fit of ln(1/Kd) vs. 1/T

CC1=CC(C)=[N+]2C1=Cc1ccc(CCC(=O)OCC(Oc3ccc(F)c(C(N)=O)c3F)c3nc(-c4ccc(C(F)(F)F)cc4)c(Br)o3)n1[B-]2(F)F (stereo not drawn) [BOFP]
Effect of both GMPCPP and MgCl2 on anisotropy of SaFtsZ-bound BOFP ([1]; 0.1 µM BOFP, 10 µM SaFtsZ, 0.1 mM GMPCPP and 10 mM MgCl2, 37 °C): modest increase in the anisotropy | Effect of GMPCPP alone or MgCl2 alone on anisotropy of SaFtsZ-bound BOFP ([1]; 0.1 µM BOFP, 10 µM SaFtsZ, 0.1 mM GMPCPP or 10 mM MgCl2, 37 °C): neither GMPCPP alone (at 0.1 mM) nor MgCl2 alone (at 10 mM) has a significant effect | Kd ([1]; 15 °C, 50 mM Tris-HCl (pH 7.6), 50 mM KCl, 0.1 µM BOFP, read-out: Kd - 15 °C): 880 ± 80 nM | Kd ([1]; 25 °C, 50 mM Tris-HCl (pH 7.6), 50 mM KCl, 0.1 µM BOFP, read-out: Kd - 25 °C): 1660 ± 120 nM | Kd ([1]; 37 °C, 50 mM Tris-HCl (pH 7.6), 50 mM KCl, 0.1 µM BOFP, read-out: Kd - 37 °C): 3140 ± 130 nM | ΔG ([1]; calculated at T = 310 K (37 °C) from Kd): -7.8 ± 0.1 kcal/mol | ΔH [1, 5]: -10.2 ± 0.3 kcal/mol | ΔS [1, 5]: −7.8 ± 1.0 cal/mol•K | Kd ([1]; range over 15 to 37 °C, read-out: Kd range): 900 to 3100 nM | Kd ([2]; 15 °C, read-out: Kd - 15 °C): 400 ± 30 nM | Kd ([2]; 25 °C, read-out: Kd - 25 °C): 550 ± 20 nM | Kd ([2]; 37 °C, read-out: Kd - 37 °C): 680 ± 40 nM | ΔH [2, 5]: -4.2 ± 0.6 kcal/mol | Fluorescence staining / FtsZ labeling in live cells [3]: bright bands of fluorescence staining are clearly visible at midcell | Fluorescence staining / FtsZ labeling in live cells [4]: bright bands of fluorescence staining are clearly visible at midcell
